Laboratory results: the supplement of paper PMC10733146

Columns and labels:
Assay in all cases: viability relative to DMSO control (fraction); higher = less drug effect (more viable cells)
Settings in all cases: 48 h
[1] = tested on: primary AML patient cells (S017)
Method in brief: (§1)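 Viability was quantified by CellTiter-Glo luminescence and related to the median of 16 inner DMSO wells. Before that, primary mononuclear tumour cells, fresh or cryopreserved and Ficoll-isolated from blood or bone marrow or prepared from processed lymph node, were plated at 4 × 10^4 cells per well in 384-well plates containing pre-plated compounds at five concentrations, one well each. Plates were incubated in RPMI-1640 with penicillin/streptomycin, L-glutamine and human serum at 37 °C and 5% CO2 for 48 h.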

[2] = tested on: primary AML patient cells (S012)
Method in brief: as §1

[3] = tested on: primary AML patient cells (S085)
Method in brief: as §1

[4] = tested on: primary AML patient cells (S021)
Method in brief: as §1

[5] = tested on: primary MCL patient cells (S053)
Method in brief: as §1

[6] = tested on: primary FL patient cells (S022)
Method in brief: as §1

[7] = tested on: primary AML patient cells (S091)
Method in brief: as §1

[8] = tested on: primary T-PLL patient cells (S008)
Method in brief: as §1

[9] = tested on: primary MCL patient cells (S068)
Method in brief: as §1

[10] = tested on: primary AML patient cells (S002)
Method in brief: as §1

[11] = tested on: primary BL patient cells (S005)
Method in brief: as §1

[12] = tested on: primary AML patient cells (S037)
Method in brief: as §1

[13] = tested on: primary B-PLL patient cells (S016)
Method in brief: as §1

[14] = tested on: primary AML patient cells (S009)
Method in brief: as §1

[15] = tested on: primary FL patient cells (S087)
Method in brief: as §1

[16] = tested on: primary AML patient cells (S081)
Method in brief: as §1

[17] = tested on: primary AML patient cells (S025)
Method in brief: as §1

[18] = tested on: primary AML patient cells (S011)
Method in brief: as §1

[19] = tested on: primary AML patient cells (S019)
Method in brief: as §1

[20] = tested on: primary MCL patient cells (S041)
Method in brief: as §1

In the case of `CCc1cnn2c(NCc3ccc[n+]([O-])c3)cc(N3CCCC[C@H]3CCO)nc12` [Dinaciclib], the viability ([1]; 0.0016 µM) is reported as 0.994, the viability ([1]; 0.008 µM) is reported as 0.401 and the viability ([1]; 0.04 µM) is reported as 0.0509. The viability ([1]; 0.2 µM) was 0.0474, the viability ([1]; 1 µM) was 0.0503 and the viability ([2]; 0.0016 µM) was 1.1. It also gave a viability ([2]; 0.008 µM) of 0.473, a viability ([2]; 0.04 µM) of 0.0686 and a viability ([2]; 0.2 µM) of 0.0607. For the same compound, the viability ([2]; 1 µM) was 0.0676, the viability ([3]; 0.0016 µM) was 1 and the viability ([3]; 0.008 µM) was 0.11. The viability ([3]; 0.04 µM) was 0.0634, the viability ([3]; 0.2 µM) was 0.0552 and the viability ([3]; 1 µM) was 0.0573. It also gave a viability ([4]; 0.0016 µM) of 1.38, a viability ([4]; 0.008 µM) of 0.424 and a viability ([4]; 0.04 µM) of 0.161. For the same compound, the viability ([4]; 0.2 µM) was 0.151, the viability ([4]; 1 µM) was 0.139 and the viability ([5]; 0.0016 µM) was 0.881. It also gave a viability ([5]; 0.008 µM) of 0.534, a viability ([5]; 0.04 µM) of 0.755 and a viability ([5]; 0.2 µM) of 0.9. For the same compound, the viability ([5]; 1 µM) was 1.08, the viability ([6]; 0.0016 µM) was 1.01 and the viability ([6]; 0.008 µM) was 0.227. The viability ([6]; 0.04 µM) was 0.195, the viability ([6]; 0.2 µM) was 0.216 and the viability ([6]; 1 µM) was 0.269. For the same compound, the viability ([7]; 0.0016 µM) was 1.07, the viability ([7]; 0.008 µM) was 0.171 and the viability ([7]; 0.04 µM) was 0.0777. It also gave a viability ([7]; 0.2 µM) of 0.076, a viability ([7]; 1 µM) of 0.0799 and a viability ([8]; 0.0016 µM) of 0.971. It also gave a viability ([8]; 0.008 µM) of 0.736, a viability ([8]; 0.04 µM) of 0.127 and a viability ([8]; 0.2 µM) of 0.128. The viability ([8]; 1 µM) was 0.143, the viability ([9]; 0.0016 µM) was 0.678 and the viability ([9]; 0.008 µM) was 0.0624. For the same compound, the viability ([9]; 0.04 µM) was 0.0361, the viability ([9]; 0.2 µM) was 0.0363 and the viability ([9]; 1 µM) was 0.0424. The viability ([10]; 0.0016 µM) was 1.17, the viability ([10]; 0.008 µM) was 0.272 and the viability ([10]; 0.04 µM) was 0.277. It also gave a viability ([10]; 0.2 µM) of 0.265, a viability ([10]; 1 µM) of 0.274 and a viability ([11]; 0.0016 µM) of 0.866. The viability ([11]; 0.008 µM) was 0.792, the viability ([11]; 0.04 µM) was 0.848 and the viability ([11]; 0.2 µM) was 0.867. For the same compound, the viability ([11]; 1 µM) was 1.01, the viability ([12]; 0.0016 µM) was 1.04 and the viability ([12]; 0.008 µM) was 0.903. For the same compound, the viability ([12]; 0.04 µM) was 0.39, the viability ([12]; 0.2 µM) was 0.38 and the viability ([12]; 1 µM) was 0.374. It also gave a viability ([13]; 0.0016 µM) of 1.07, a viability ([13]; 0.008 µM) of 0.047 and a viability ([13]; 0.04 µM) of 0.0409. For the same compound, the viability ([13]; 0.2 µM) was 0.0324, the viability ([13]; 1 µM) was 0.0324 and the viability ([14]; 0.0016 µM) was 1.06. The viability ([14]; 0.008 µM) was 0.189, the viability ([14]; 0.04 µM) was 0.0815 and the viability ([14]; 0.2 µM) was 0.0774. For the same compound, the viability ([14]; 1 µM) was 0.0863, the viability ([15]; 0.0016 µM) was 0.962 and the viability ([15]; 0.008 µM) was 0.641. For the same compound, the viability ([15]; 0.04 µM) was 0.759, the viability ([15]; 0.2 µM) was 0.756 and the viability ([15]; 1 µM) was 0.829. For the same compound, the viability ([16]; 0.0016 µM) was 1.02, the viability ([16]; 0.008 µM) was 0.0549 and the viability ([16]; 0.04 µM) was 0.0232. It also gave a viability ([16]; 0.2 µM) of 0.0223, a viability ([16]; 1 µM) of 0.0211 and a viability ([17]; 0.0016 µM) of 0.976. For the same compound, the viability ([17]; 0.008 µM) was 0.286, the viability ([17]; 0.04 µM) was 0.063 and the viability ([17]; 0.2 µM) was 0.0602. For the same compound, the viability ([17]; 1 µM) was 0.0589, the viability ([18]; 0.0016 µM) was 1.23 and the viability ([18]; 0.008 µM) was 0.155. It also gave a viability ([18]; 0.04 µM) of 0.0402, a viability ([18]; 0.2 µM) of 0.0329 and a viability ([18]; 1 µM) of 0.0263. The viability ([19]; 0.0016 µM) was 1.31, the viability ([19]; 0.008 µM) was 0.54 and the viability ([19]; 0.04 µM) was 0.114. It also gave a viability ([19]; 0.2 µM) of 0.116, a viability ([19]; 1 µM) of 0.126 and a viability ([20]; 0.0016 µM) of 0.938. It also gave a viability ([20]; 0.008 µM) of 0.0691, a viability ([20]; 0.04 µM) of 0.0382 and a viability ([20]; 0.2 µM) of 0.0378. The viability ([20]; 1 µM) was 0.0402.
